In experiment [1] the test system is GSK3 (Ser21/9). The experiment is described as follows: Western blot of GSK3 phosphorylation in H4IIE cells. The experiment is classed as cell-based, rat. Conditions: 6 minutes. The method, then: (§1) Tissue culture media, antibiotics, fetal bovine serum (FBS) and Nunc tissue culture plates were purchased from Invitrogen Canada Inc. (Burlington, Ontario, Canada, L7P 1A1). Insulin (Sigma-Aldrich Canada Ltd., Oakville, Ontario, Canada, L6H 6J8) was dissolved in water and added directly to cells at a concentration of 250 nM unless otherwise indicated. The BWE was prepared and analyzed as described in Example 1. Two μL of the BWE were added directly to cells unless otherwise indicated. This amount was chosen on the basis of equivalence to insulin. Myo-inositol (Sigma-Aldrich Canada Ltd.) and D-chiro-inositol (Industrial Research Ltd., Wellington, New Zealand) were dissolved in water at an equal concentration to the amounts present in the BWE (Table 3) and 2 μL of each solution (0.1% v/v final concentration) was added directly to cells.
(§2) Rat H4IIE hepatoma cells (American Type Culture Collection, CRL 1548) were cultured following the method disclosed by Yau et al., (1998, Eur. J. Biochem. 253: 91-1). The H4IIE cells were maintained in α-modified Eagle's media containing 10% FBS, 2 mM glutamine, 25 μg·mL^−1 streptomycin and 25 units·mL^−1 penicillin. Cells were plated and grown to 70% confluence. All cells were placed into serum-free medium for 72 h before addition of stimulating agents to ensure entry into a quiescent state. […]
(§3) Cellular protein extracts were prepared by addition of 200 μL 2×SDS/gel loading buffer (0.125 M Tris pH 6.8, 2% SDS, 10% glycerol) to H4IIE cells in 12-well culture dishes. The samples were briefly sonicated, and protein content measured using the BCA protein assay kit. […] HRP was detected using the ECL chemiluminescent system after the membranes had been washed four times.
(§4) Quantification of data obtained on film (Kodak X-omat) was accomplished with a GS800 imaging densitometer (Bio-Rad Laboratories) under nonsaturating conditions with local background subtraction. […]
Background: Immunoblotting shows a protein as a band on a membrane.

Experiment [2] has as its system p70S6K (Thr389 and Thr421). The experiment is described as follows: Western blot of p70S6K phosphorylation in H4IIE cells. The experiment is classed as cell-based, rat. The method, then: as §1
(§5) Rat H4IIE hepatoma cells (American Type Culture Collection, CRL 1548) were cultured following the method disclosed by Yau et al., (1998, Eur. J. Biochem. 253: 91-1). The H4IIE cells were maintained in α-modified Eagle's media containing 10% FBS, 2 mM glutamine, 25 μg·mL^−1 streptomycin and 25 units·mL^−1 penicillin. Cells were plated and grown to 70% confluence. All cells were placed into serum-free medium for 72 h before addition of stimulating agents to ensure entry into a quiescent state.
(§6) Cultures of quiescent H4IIE cells or quiescent FAO cells were placed into 12-well culture dishes containing 2 mL serum-free medium, and then stimulated by direct addition of the inhibitors listed in Table 1 (volumes of additions were 10 μL or less) without replacing the medium. […] The cells in 12-well culture dishes were incubated with stimulating agents for 6 minutes and rinsed with phosphate buffered saline (PBS; 0.9% NaCl, 0.1 M Na3PO4, pH 7.1).
(§7) Cellular protein extracts were prepared by addition of 200 μL 2×SDS/gel loading buffer (0.125 M Tris pH 6.8, 2% SDS, 10% glycerol) to H4IIE cells in 12-well culture dishes. The samples were briefly sonicated, and protein content measured using the BCA protein assay kit. Aliquots containing equal amounts of protein were mixed with bromophenol blue (0.5% (w/v) final concentration) and 2-mercaptoethanol (5% (v/v) final concentration), heated at 95° C. and loaded onto 7.5% or 10% polyacrylamide gels. […] Primary antibodies (diluted 1:1000 in 3% (w/v) BSA) were incubated with the membrane for 60 min at 22° C. Membranes were subsequently washed four times and incubated for an additional 60 min at 1 8-22° C. in 1% (w/v) BSA-TBST with diluted HRP-coupled secondary antibody (1:10 000). HRP was detected using the ECL chemiluminescent system after the membranes had been washed four times.
(§8) Quantification of data obtained on film (Kodak X-omat) was accomplished with a GS800 imaging densitometer (Bio-Rad Laboratories) under nonsaturating conditions with local background subtraction. Although multiple exposures were acquired to ensure the absence of film saturation, the experimental figures typically show longer exposures selected specifically for visual presentation and not necessarily used for data analysis. Graphical data are presented as means±SE for a minimum of three replicate samples.

For experiment [3], the system named is Insulin receptor (Tyr1146). The experiment is described as follows: Western blot of insulin receptor phosphorylation in H4IIE cells. The experiment is classed as cell-based, rat. Conditions: 6 minutes. As to the method:
as §1, §2, §3, §4

The subject of experiment [4] is Insulin receptor substrate-I (Tyr941). The experiment is described as follows: Western blot of IRS-1 phosphorylation in H4IIE cells. The experiment is classed as cell-based, rat. Conditions: 6 minutes. The method, then:
as §1, §2, §3, §4

The subject of experiment [5] is PDK-1 (Ser241). The experiment is described as follows: Western blot of PDK-1 phosphorylation in H4IIE cells. In kind it is cell-based, rat. Conditions: for PDK-1 (Ser241) phosphorylation, stimulation (fold) relative to the control: 6 min, one experiment. As to the method: as §1, §5, §6, §7, §8
In experiment [6] the test system is Raf (Ser259). The experiment is described as follows: Western blot of Raf phosphorylation in H4IIE cells. In kind it is cell-based, rat. Conditions: for Raf (Ser259) phosphorylation, stimulation (fold) relative to the control: 6 min, one experiment. As to the method:
as §1, §5, §6, §7, §8

Experiment [7] has as its system S6 ribosomal protein (Ser235/236). The experiment is described as follows: Western blot of ribosomal protein S6 phosphorylation in H4IIE cells. Conditions: 6 minutes. In kind it is cell-based, rat. As to the method:
Tissue culture media, antibiotics, fetal bovine serum (FBS) and Nunc tissue culture plates were purchased from Invitrogen Canada Inc. (Burlington, Ontario, Canada, L7P 1A1). Insulin (Sigma-Aldrich Canada Ltd., Oakville, Ontario, Canada, L6H 6J8) was dissolved in water and added directly to cells at a concentration of 250 nM unless otherwise indicated. The BWE was prepared and analyzed as described in Example 1. Two μL of the BWE were added directly to cells unless otherwise indicated. This amount was chosen on the basis of equivalence to insulin. […]
as §3, §4

In experiment [8] the test system is plasma glucose. Conditions: normal rats; synthetic D-CI intragastrically 2 hours before intraperitoneal glucose load (4 g/kg); cited from earlier work.
[9] abbreviates: BWE-stimulated, 15-min preincubation with the inhibitor (None = BWE alone).
Where [10] appears, read: insulin-stimulated, 15-min preincubation with the inhibitor (None = insulin alone).

“Also recorded” adds a separate entry of the source.

As to `O[C@H]1[C@H](O)[C@@H](O)[C@H](O)[C@@H](O)[C@H]1O` [MI, myo-inositol], the “phosphorylation of GSK3” value in experiment [1] is “do not provide comparable stimulation”. Further, in experiment [2] (6 minutes), the “phosphorylation of p70S6K (Thr421)” value is “unable to effect phosphorylation”. Also, the “phosphorylation of InsR” value in experiment [3] was “do not provide comparable stimulation”. Also, in experiment [4], the “phosphorylation of IRS-1” value is listed as “do not provide comparable stimulation”.

On to `COc1cccc(-c2cc(=O)c3ccccc3o2)c1N` [PD98059], for which the “PDK-1 (Ser241) phosphorylation, stimulation (fold) relative to the control” value is given as 0.54 fold in experiment [5] (setting [9]) and 1.89 fold in experiment [5] (setting [10]). In addition, the “Raf (Ser259) phosphorylation, stimulation (fold) relative to the control” value in experiment [6] (setting [9]) and in experiment [6] (setting [10]) was 0.20 fold throughout. The “effect of the inhibitor on insulin-stimulated phosphorylation of p70S6K (Thr389)” value in experiment [2] (15-minute pre-incubation with inhibitor, then INS 6 minutes) is “independent of MAPK”. Also, the “effect of the inhibitor on insulin- and BWE-stimulated phosphorylation of p70S6K (Thr421)” value in experiment [2] (15-minute pre-incubation with inhibitor, then INS or BWE 6 minutes) was “MAPK-dependent (PD98059 sensitive)”.

In the case of “insulin: Insulin (Sigma-Aldrich) dissolved in water, positive comparator”, in experiment [1], the “phosphorylation of GSK3” value is given as “phosphorylated in response to insulin”. Also, in experiment [5] (6 minutes), the “phosphorylation (activation) of PDK” value is listed as “not stimulated”. In addition, the “PDK-1 (Ser241) phosphorylation, stimulation (fold) relative to the control” value in experiment [5] (setting [10]) amounted to 1.57 fold. In experiment [6] (6 minutes), the “phosphorylation (activation) of RAF” value is “not stimulated”. Also, the “Raf (Ser259) phosphorylation, stimulation (fold) relative to the control” value in experiment [6] (setting [10]) is 0.53 fold. Moreover, in experiment [2] (6 minutes), the “phosphorylation of p70S6K (Thr389)” value is recorded as “stimulates the phosphorylation of p70^S6K on both residues” and the “phosphorylation of p70S6K (Thr421)” value is “stimulates the phosphorylation of p70^S6K on both residues”. In addition, the “phosphorylation of InsR” value in experiment [3] is given as “phosphorylated in response to insulin; also recorded: stimulated by insulin only”. The “phosphorylation of ribosomal protein S6” value in experiment [7] is reported as “insulin did”. Moreover, the “phosphorylation of IRS-1” value in experiment [4] is “phosphorylated in response to insulin”.

For `OC1C(O)C(O)C(O)C(O)C1O` [D-CI, D-chiro-inositol], in experiment [1], the “phosphorylation of GSK3” value was “do not provide comparable stimulation”. Besides, in experiment [2] (6 minutes), the “phosphorylation of p70S6K (Thr421)” value is “unable to effect phosphorylation”. Besides, in experiment [8], the “decrease in plasma glucose” value is 30-50%. Besides, the “phosphorylation of InsR” value in experiment [3] is on record as “do not provide comparable stimulation”. Also, the “phosphorylation of IRS-1” value in experiment [4] is given as “do not provide comparable stimulation”.

Source of the values: patent US7993687B2, “Compositions and methods for management of diabetes” (priority 2006, dated 2011).
